Source: PubChem BioAssay (NCI)
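Assay format: 96-well plates, 48-hour exposure. GI50 = concentration required for 50% inhibition of growth. TGI is the concentration that stops growth completely.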 Where a SMILES comes first, the peptide text is derived from it. The star is where a group is joined. Palmitoyl = CCCCCCCCCCCCCCCC(=O)*

Tests used:
Test in all cases: inhibition of tumour cell growth, NCI panel, 48 h
[1] = system: SF-268 CNS
[2] = system: K-562 leukemia
[3] = system: SN12C renal
[4] = system: SNB-19 CNS
[5] = system: HL-60(TB) leukemia
[6] = system: NCI-H460 lung
[7] = system: HOP-62 NSCLC
[8] = system: MALME-3M melanoma
[9] = system: A498 renal
[10] = system: CAKI-1 renal

Row | SMILES | TGI [1] [µM] | TGI [2] [µM] | TGI [3] [µM] | TGI [4] [µM] | TGI [5] [µM] | TGI [6] [µM] | TGI [7] [µM] | TGI [8] [µM] | TGI [9] [µM] | TGI [10] [µM] | GI50 [1] [µM] | GI50 [2] [µM] | GI50 [4] [µM] | GI50 [7] [µM] | GI50 [8] [µM] | GI50 [9] [µM] | GI50 [5] [µM] | GI50 [6] [µM] | GI50 [10] [µM] | GI50 [3] [µM]
1 | CC12C=CC(=O)C=C1CCC1C3CCC(O)(C(=O)CO)C3(C)CC(O)C12F (stereo not drawn) | > 100 | > 100 | > 100 | > 100 | > 100 | > 100 | > 100 | > 100 | > 100 | > 100 |  |  |  |  |  |  |  |  |  | 
2 | CON(C)c1nc(N(C)OC)nc(N(C)OC)n1 | > 10 | > 10 | > 10 | > 10 | > 10 | > 10 | > 10 | > 10 | > 10 | > 10 |  |  |  |  |  |  |  |  |  | 
3 | Nc1nc(O)c2ncn([C@H]3CC[C@@H](CO)O3)c2n1 |  | > 100 | > 100 | > 100 |  | > 100 | > 100 | > 100 | > 100 | > 100 |  |  |  |  |  |  |  |  |  | 
4 | CN1C(c2ccccc2)CC(=O)C(N)C1c1ccccc1 (stereo not drawn) | > 100 | > 67.6 | 97.6 | > 100 | 56.7 | 55.6 | > 100 | 50 | > 100 | > 75.2 |  |  |  |  |  |  |  |  |  | 
5 | Cn1c(-c2ccccc2)cc(-c2cccs2)c1-c1cccs1 | > 100 | > 100 | > 100 | > 100 | > 100 | > 100 | > 100 | > 100 | > 100 | > 100 |  |  |  |  |  |  |  |  |  | 
6 | Cc1cc(C)nc(NS(=O)(=O)c2ccc(NC(=O)c3cccc4c(Nc5ccc(S(=O)(=O)Nc6cc(C)on6)cc5)c5ccccc5nc34)cc2)n1 | 65.2 | 80.6 | 61.8 | 46.7 | 68.4 | 59.9 | 45.4 | 44.7 | 68.5 |  |  |  |  |  |  |  |  |  |  | 
7 | CCN1CCC(O)(/C=C/c2ccccc2C)C(C(=O)/C=C/c2ccccc2C)C1 (stereo not drawn) | 14 | > 100 | 4.6 |  | 4.85 | 3.18 | 3.74 | 16.3 | 4.55 | 3.21 |  |  |  |  |  |  |  |  |  | 
8 | COC(=O)C1=C(OC(=O)/C(=C/c2ccc(Cl)cc2)c2ccc(Cl)cc2)C(C(=O)OC)[C@]2(O)[C@@H](C(=O)OC)[C@H]1C[C@@H](c1ccccc1)[C@@H]2C(=O)OC (stereo partly drawn) | > 100 | > 100 | > 100 | > 100 | > 100 | > 100 | > 100 |  |  | > 100 |  |  |  |  |  |  |  |  |  | 
9 | O[C@@]12Cc3c([nH]c4ccccc34)[C@@H]3Oc4cccc5c4[C@@]31CCN(CC1CC1)[C@@H]2C5 | 34 | 55.4 | 37 | 50.9 |  | 60.9 | 46.6 | 33.9 | 40.5 | 34.2 |  |  |  |  |  |  |  |  |  | 
10 | C/C(=N/N=C(\[O-])c1ccncc1)C(F)(F)F.C/C(=N\N=C(/[O-])c1ccncc1)C(F)(F)F.[Ni+2] | > 1 | > 1 |  | > 1 | > 1 |  | > 1 | > 1 | > 1 |  | > 1 | > 1 | > 1 | > 1 | > 1 | > 1 |  |  |  | 
11 | CCCCCCCCCCCCCCCC(=O)N1CCCC1C(=O)NCC(=O)NC(Cc1ccccc1)C(=O)NC(C)C(=O)NC(CO)C(=O)NC(Cc1ccc(O)cc1)C(=O)NC(CCCCN)C(=O)NC(CC(C)C)C(=O)NC(CCCN=C(N)N)C(=O)N1CCCC1C(=O)NCC(N)=O (stereo not drawn) (Palmitoyl-PGFASYKLRPG-NH2; configuration not given here) | 36 | 32.2 |  | 39.7 | 31 | 61.4 | 46 | 47.3 | > 100 | 32.1 | 16.3 | 18.3 | 18.4 | 21.1 | 18 | 37.4 | 17.2 | 23.5 | 12.4 | 
12 | C=C(C)C1Cc2c(c3ccccc3n(C)c2=O)O1 (stereo not drawn) | > 100 | > 100 | > 100 | > 100 | > 100 | > 100 |  | > 100 | > 100 | > 100 |  |  |  |  |  |  |  |  |  | 
13 | c1ccc(-c2nc(N3CCNCC3)c3oc(-c4ccccc4)nc3n2)cc1 | 3.46 | 2.35 | 2.98 | 3.15 | 4.26 | 3.38 | 4.81 | 3.17 | 3.07 | 3.18 | 1.73 | 0.428 | 1.72 | 2.26 | 1.7 | 1.62 | 2.03 | 1.75 | 1.66 | 1.61
14 | CC(C)C(C(=O)O)N1C(=O)c2ccccc2C1=O (stereo not drawn) | > 100 | > 100 | > 100 | > 100 | > 100 | > 100 | > 100 | > 100 | > 100 | > 100 |  |  |  |  |  |  |  |  |  | 
